Test results as given in patent US20100311749A1, “4-BENZOYL-1-SUBSTITUTED-PIPERAZIN-2-ONE DERIVATIVES AS P2X7 MODULATORS” (priority 2007, published 2010).

Each compound was assayed against T1, human P2X7 receptor (Homo sapiens, UniProt Q99572) (assay: Ethidium Accumulation Assay). Conditions: HEK293 cells stably expressing human recombinant P2X7 receptors; 1 mM ATP; values given as 'about'; read-out: pIC50 for human P2X7 receptor antagonist activity (blocking ATP responses) in the Ethidium Accumulation Assay (converted).
T1 construct: expressed in transfected cells
T1 sequence (Q99572 1-595): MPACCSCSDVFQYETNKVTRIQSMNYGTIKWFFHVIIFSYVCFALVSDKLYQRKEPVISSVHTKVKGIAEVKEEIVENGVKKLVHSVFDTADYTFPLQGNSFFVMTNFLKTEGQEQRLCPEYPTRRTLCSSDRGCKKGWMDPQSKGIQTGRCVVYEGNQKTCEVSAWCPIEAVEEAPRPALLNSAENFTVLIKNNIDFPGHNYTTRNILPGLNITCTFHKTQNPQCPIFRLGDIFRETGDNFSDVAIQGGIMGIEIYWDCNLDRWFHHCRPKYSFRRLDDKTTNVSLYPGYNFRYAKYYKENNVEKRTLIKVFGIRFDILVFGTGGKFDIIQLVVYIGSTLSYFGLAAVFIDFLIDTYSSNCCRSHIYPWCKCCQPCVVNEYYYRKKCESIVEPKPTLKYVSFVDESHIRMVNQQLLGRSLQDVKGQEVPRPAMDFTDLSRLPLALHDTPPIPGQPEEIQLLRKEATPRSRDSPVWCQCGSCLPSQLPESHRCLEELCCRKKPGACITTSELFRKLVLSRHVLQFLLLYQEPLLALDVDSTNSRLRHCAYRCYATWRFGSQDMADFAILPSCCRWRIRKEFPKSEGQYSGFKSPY
Type: cell-based
Procedure: Studies were performed using NaCl assay buffer of the following composition: 140 mM NaCl, 10 mM HEPES [4-(2-hydroxyethyl)-1-piperazine-1-ethanesulfonic acid], 5 mM N-methyl-D-glucamine, 5.6 mM KCl, 10 mM D-glucose, 0.5 mM CaCl2 (pH 7.4).
Human Embryonic Kidney (HEK) 293 cells, stably expressing human recombinant P2X7 receptors, were grown in poly-D-lysine pre-treated 96 well plates for 18-24 hours. […] The cells were washed twice with 350 μl of the assay buffer, before addition of 50 μl of the assay buffer containing the putative P2X7 receptor antagonist compound. (A small amount of dimethyl sulfoxide, for initially dissolving the compound, is optionally used and present in this 50 μl test compound sample.) The cells were then incubated at room temperature (19-21° C.) for 30 min before addition of ATP and ethidium (100 μM final assay concentration). The ATP concentration was chosen to be close to the EC80 for the receptor type and was 1 mM for studies on the human P2X7 receptor. Incubations were continued for 8 or 16 min and were terminated by addition of 25 μl of 1.3M sucrose containing 4 mM of the P2X7 receptor antagonist Reactive Black 5 (Aldrich). […] Antagonist pIC50 values for blocking ATP responses were determined using iterative curve fitting techniques.
Work on `Cc1ccccc1N1CCN(C(=O)c2cccc(C(F)(F)F)c2Cl)CC1=O` [Example 1, 4-{[2-Chloro-3-(trifluoromethyl)phenyl]carbonyl}-1-(2-methylphenyl)-2-piperazinone] yielded an IC50 of 0.00501 to 0.2 µM.
Work on `Cc1ccccc1N1CCN(C(=O)c2ccc(Cl)cc2Cl)CC1=O` [Example 2, 4-[(2,4-Dichlorophenyl)carbonyl]-1-(2-methylphenyl)-2-piperazinone] yielded an IC50 of 0.00501 to 0.2 µM.
`Cc1ccccc1N1CCN(C(=O)c2cccc(Cl)c2Cl)CC1=O` [Example 4, 4-[(2,3-Dichlorophenyl)carbonyl]-1-(2-methylphenyl)-2-piperazinone] showed an IC50 of 0.00501 to 0.2 µM.
Compound `O=C(c1ccc(F)cc1Cl)N1CCN(c2ccccc2Cl)C(=O)C1` [Example 5, 4-[(2-Chloro-4-fluorophenyl)carbonyl]-1-(2-chlorophenyl)-2-piperazinone] has an IC50 of 0.00501 to 0.2 µM.
Compound `O=C(c1cccc(Cl)c1Cl)N1CCN(c2ccccc2Cl)C(=O)C1` [Example 6, 1-(2-Dichlorophenyl)-4-[(2,3-dichlorophenyl)carbonyl]-2-piperazinone] has an IC50 of 0.00501 to 0.2 µM.
Work on `O=C(c1cccc(Cl)c1Cl)N1CCN(c2ccc(Cl)cc2)C(=O)C1` [Example 7, 1-(4-Chlorophenyl)-4-[(2,3-dichlorophenyl)carbonyl]-2-piperazinone] yielded an IC50 of 0.00501 to 0.2 µM.
For `O=C(c1ccc(Cl)cc1Cl)N1CCN(c2ccccc2Cl)C(=O)C1` [Example 8, 1-(2-Chlorophenyl)-4-[(2,4-dichlorophenyl)carbonyl]-2-piperazinone], the IC50 was 0.00501 to 0.2 µM.
With `O=C(c1cccc(C(F)(F)F)c1Cl)N1CCN(c2ccccc2Cl)C(=O)C1` [Example 9, 1-(2-Chlorophenyl)-4-{[2-chloro-3-(trifluoromethyl)phenyl]carbonyl}-2-piperazinone] the IC50 was 0.00501 to 0.2 µM.
In the case of `O=C(c1cccc(C(F)(F)F)c1Cl)N1CCN(c2ccc(F)cc2Cl)C(=O)C1` [Example 10, 1-(2-Chloro-4-fluorophenyl)-4-{[2-chloro-3-(trifluoromethyl)phenyl]carbonyl}-2-piperazinone], the IC50 is reported as 0.00501 to 0.2 µM.
In the case of `O=C(c1cccc(Cl)c1Cl)N1CCN(c2ccc(F)cc2Cl)C(=O)C1` [Example 11, 1-(2-Chloro-4-fluorophenyl)-4-[(2,3-dichlorophenyl)carbonyl]-2-piperazinone], the IC50 is reported as 0.00501 to 0.2 µM.
With `O=C(c1cccc(C(F)(F)F)c1Cl)N1CCN(c2ccc(F)cc2)C(=O)C1` [Example 12, 4-{[2-Chloro-3-(trifluoromethyl)phenyl]carbonyl}-1-(4-fluorophenyl)-2-piperazinone] the IC50 was 0.00501 to 0.2 µM.
In the case of `O=C(c1cccc(Cl)c1Cl)N1CCN(c2ccc(F)cc2)C(=O)C1` [Example 13, 4-[(2,3-Dichlorophenyl)carbonyl]-1-(4-fluorophenyl)-2-piperazinone], the IC50 is reported as 0.00501 to 0.2 µM.
With `O=C(c1cccc(Cl)c1Cl)N1CCN(c2cccc(Cl)c2)C(=O)C1` [Example 14, 1-(3-Chlorophenyl)-4-[(2,3-dichlorophenyl)carbonyl]-2-piperazinone] the IC50 was 0.00501 to 0.2 µM.
With `O=C1CN(C(=O)c2cccc(Cl)c2Cl)CCN1Cc1ccc(F)cc1Cl` [Example 15, 1-[(2-Chloro-4-fluorophenyl)methyl]-4-[(2,3-dichlorophenyl)carbonyl]-2-piperazinone] the IC50 was 0.00501 to 0.2 µM.
Compound `CN1CCN(C(=O)c2cccc(Cl)c2Cl)CC1=O` [Example 16, 4-[(2,3-Dichlorophenyl)carbonyl]-1-methyl-2-piperazinone] has an IC50 of 0.00501 to 0.2 µM.
In the case of `CCN1CCN(C(=O)c2cccc(Cl)c2Cl)CC1=O` [Example 17, 4-[(2,3-Dichlorophenyl)carbonyl]-1-ethyl-2-piperazinone], the IC50 is reported as 0.00501 to 0.2 µM.
Compound `CC(C)N1CCN(C(=O)c2cccc(Cl)c2Cl)CC1=O` [Example 18, 4-[(2,3-Dichlorophenyl)carbonyl]-1-(1-methylethyl)-2-piperazinone] has an IC50 of 0.00501 to 0.2 µM.
With `O=C(c1cccc(Cl)c1Cl)N1CCN(c2ccc(F)cc2F)C(=O)C1` [Example 19, 4-[(2,3-Dichlorophenyl)carbonyl]-1-(2,4-difluorophenyl)-2-piperazinone] the IC50 was 0.00501 to 0.2 µM.
Compound `O=C(c1cccc(C(F)(F)F)c1Cl)N1CCN(c2ccc(F)cc2F)C(=O)C1` [Example 21, 4-{[2-chloro-3-(trifluoromethyl)phenyl]carbonyl}-1-(2,4-difluorophenyl)-2-piperazinone] has an IC50 of 0.00251 to 0.1 µM.
`O=C(c1cccc(Cl)c1Cl)N1CCN(c2cccc3ccccc23)C(=O)C1` [Example 22, 4-[(2,3-dichlorophenyl)carbonyl]-1-(1-naphthalenyl)-2-piperazinone] showed an IC50 of 0.00251 to 0.1 µM.
`O=C(c1ccc(F)cc1Cl)N1CCN(c2cccc3ccccc23)C(=O)C1` [Example 23, 4-[(2-chloro-4-fluorophenyl)carbonyl]-1-(1-naphthalenyl)-2-piperazinone] was tested, and the IC50 was 0.00251 to 0.1 µM.
With `O=C(c1cccc(C(F)(F)F)c1Cl)N1CCN(c2cccc3ccccc23)C(=O)C1` [Example 24, 4-{[2-chloro-3-(trifluoromethyl)phenyl]carbonyl}-1-(1-naphthalenyl)-2-piperazinone] the IC50 was 0.00251 to 0.1 µM.
`CC(C)c1ccccc1N1CCN(C(=O)c2cccc(C(F)(F)F)c2Cl)CC1=O` [Example 25, 4-{[2-chloro-3-(trifluoromethyl)phenyl]carbonyl}-1-[2-(1-methylethyl)phenyl]-2-piperazinone] showed an IC50 of 0.00251 to 0.1 µM.
In the case of `CC(C)c1ccccc1N1CCN(C(=O)c2ccc(F)cc2Cl)CC1=O` [Example 26, 4-[(2-chloro-4-fluorophenyl)carbonyl]-1-[2-(1-methylethyl)phenyl]-2-piperazinone], the IC50 is reported as 0.00251 to 0.1 µM.
`CC(C)c1ccccc1N1CCN(C(=O)c2cccc(Cl)c2Cl)CC1=O` [Example 27, 4-[(2,3-dichlorophenyl)carbonyl]-1-[2-(1-methylethyl)phenyl]-2-piperazinone] showed an IC50 of 0.00251 to 0.1 µM.
Compound `Cc1cc(F)ccc1N1CCN(C(=O)c2cccc(Cl)c2Cl)CC1=O` [Example 28, 4-[(2,3-dichlorophenyl)carbonyl]-1-(4-fluoro-2-methylphenyl)-2-piperazinone] has an IC50 of 0.00251 to 0.1 µM.
Work on `Cc1cccc(C(=O)N2CCN(c3ccc(F)cc3Cl)C(=O)C2)c1Cl` [Example 30, 1-(2-chloro-4-fluorophenyl)-4-[(2-chloro-3-methylphenyl)carbonyl]-2-piperazinone] yielded an IC50 of 0.00251 to 0.1 µM.
With `O=C(c1c(Cl)cccc1Cl)N1CCN(c2ccc(F)cc2Cl)C(=O)C1` [Example 31, 1-(2-chloro-4-fluorophenyl)-4-[(2,6-dichlorophenyl)carbonyl]-2-piperazinone] the IC50 was 0.00251 to 0.1 µM.
`O=C(c1ccc(F)c(F)c1Cl)N1CCN(c2ccc(F)cc2Cl)C(=O)C1` [Example 32, 4-[(2-chloro-3,4-difluorophenyl)carbonyl]-1-(2-chloro-4-fluorophenyl)-2-piperazinone] gave an IC50 of 0.00251 to 0.1 µM.
`CN1CCN(C(=O)c2cccc(C(F)(F)F)c2Cl)CC1=O` [Example 35, 4-{[2-chloro-3-(trifluoromethyl)phenyl]carbonyl}-1-methyl-2-piperazinon] gave an IC50 of 0.00251 to 0.1 µM.
For `N#Cc1cc(F)ccc1N1CCN(C(=O)c2cccc(Cl)c2Cl)CC1=O` [Example 38, 2-{-4-[(2,3-dichlorophenyl)carbonyl]-2-oxo-1-piperazinyl}-5-fluorobenzonitrile], the IC50 was 0.00251 to 0.1 µM.
In the case of `CC(C)CN1CCN(C(=O)c2cccc(Cl)c2Cl)CC1=O` [Example 39, 4-[(2,3-dichlorophenyl)carbonyl]-1-(2-methylpropyl)-2-piperazinone], the IC50 is reported as 0.00251 to 0.1 µM.
For `Cc1cc(F)c(Br)cc1N1CCN(C(=O)c2cccc(C(F)(F)F)c2Cl)CC1=O` [Example 45, 1-(5-bromo-4-fluoro-2-methylphenyl)-4-{[2-chloro-3-(trifluoromethyl)phenyl]carbonyl}-2-piperazinone], the IC50 was 0.00251 to 0.1 µM.
With `Cc1c(Br)cccc1N1CCN(C(=O)c2cccc(C(F)(F)F)c2Cl)CC1=O` [Example 46, 1-(3-bromo-2-methylphenyl)-4-{[2-chloro-3-(trifluoromethyl)phenyl]carbonyl}-2-piperazinone] the IC50 was 0.00251 to 0.1 µM.
With `CCC(CC)N1CCN(C(=O)c2cccc(C(F)(F)F)c2Cl)CC1=O` [Example 47, 4-{[2-chloro-3-(trifluoromethyl)phenyl]carbonyl}-1-(1-ethylpropyl)-2-piperazinone] the IC50 was 0.00251 to 0.1 µM.
`O=C1CN(C(=O)c2cccc(C(F)(F)F)c2Cl)CCN1CC1CC1` [Example 48, 4-{[2-chloro-3-(trifluoromethyl)phenyl]carbonyl}-1-(cyclopropylmethyl)-2-piperazinone] gave an IC50 of 0.00251 to 0.1 µM.
